Activity calls are given as the source filed them.
Columns and labels:
[1] = target: T1, Corticotropin-releasing factor receptor 2/Corticotropin-releasing factor-binding protein (Homo sapiens, UniProt P24387+Q13324); assay: activators of CRF receptor 2 with binding protein – uHTS hits, confirmation (AID 602473); assay type: functional; details: read-out: EC50_Mean
T1 sequence (Q13324 whole entry): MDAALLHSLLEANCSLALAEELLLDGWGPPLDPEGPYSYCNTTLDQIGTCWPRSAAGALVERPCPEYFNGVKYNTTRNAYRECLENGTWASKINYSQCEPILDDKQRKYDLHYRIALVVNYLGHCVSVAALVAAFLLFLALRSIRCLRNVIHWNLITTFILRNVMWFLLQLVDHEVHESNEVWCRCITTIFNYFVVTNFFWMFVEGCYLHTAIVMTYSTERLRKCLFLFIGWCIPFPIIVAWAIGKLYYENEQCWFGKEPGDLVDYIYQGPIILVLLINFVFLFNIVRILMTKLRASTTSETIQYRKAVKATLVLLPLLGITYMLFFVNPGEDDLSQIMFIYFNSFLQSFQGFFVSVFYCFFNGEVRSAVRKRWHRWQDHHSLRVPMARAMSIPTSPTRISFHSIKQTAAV
T1 sequence (P24387 whole entry): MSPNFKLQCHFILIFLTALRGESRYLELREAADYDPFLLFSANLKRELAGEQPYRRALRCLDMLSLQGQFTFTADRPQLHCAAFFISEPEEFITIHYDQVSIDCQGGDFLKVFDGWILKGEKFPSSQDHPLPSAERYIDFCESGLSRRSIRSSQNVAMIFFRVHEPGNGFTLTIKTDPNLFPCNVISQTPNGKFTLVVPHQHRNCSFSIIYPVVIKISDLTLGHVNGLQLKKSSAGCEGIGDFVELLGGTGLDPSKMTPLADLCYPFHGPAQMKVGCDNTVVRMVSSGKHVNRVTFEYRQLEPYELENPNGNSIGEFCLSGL

[2] = system: INS1; assay: INS-1E survival protection against cytokine death – cell-based, luminescence, retest, dose response (AID 449756); assay type: functional; details: Rattus norvegicus;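 also: cell death triggered by IL-1 beta plus TNF-alpha plus IFN-gamma mixture; protective hits raise ATP signal compared with cytokine alone wells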
[3] = target: T2, Sentrin-specific protease 8 (Homo sapiens, UniProt Q96LD8); assay type: functional
T2 sequence (Q96LD8 whole entry): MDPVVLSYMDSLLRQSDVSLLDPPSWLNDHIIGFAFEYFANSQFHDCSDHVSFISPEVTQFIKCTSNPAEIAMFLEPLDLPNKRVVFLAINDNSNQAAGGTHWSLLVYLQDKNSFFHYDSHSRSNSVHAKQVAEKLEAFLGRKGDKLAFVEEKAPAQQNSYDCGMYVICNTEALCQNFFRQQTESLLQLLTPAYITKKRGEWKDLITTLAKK

[4] = target: T2, Sentrin-specific protease 8; assay type: functional; remark: listed apart in the source
[5] = target: Beta Lactamase (Pseudomonas aeruginosa, UniProt Q932Y6); assay: BLA reporter interference, concentration series – BLA reporter cells, FRET fluorescence, artefact control for NOD2-RIPK2 interaction inhibitor project, dose response (AID 651552); assay type: functional, cell-based
[6] = target: Mitochondrial peptide methionine sulfoxide reductase (Bos taurus, UniProt P54149); assay: Absorbance-based biochemical high throughput dose response assay for activators of Methionine sulfoxide reductase A (MsrA).; assay type: functional
[7] = Fluorescence-based cell-based high throughput dose response assay for inhibitors of the interaction of nucleotide-binding oligomerization domain containing 2 (NOD2) and the receptor-interacting serine-threonine kinase 2 (RIPK2).; assay type: functional; details: Homo sapiens
[8] = target: Tyrosyl-DNA phosphodiesterase 2 (Homo sapiens, UniProt O95551); assay: potency against TDP2 phosphodiesterase activity – biochemical, epi absorbance, IC50, dose response (AID 743297)
[9] = target: Hepatocyte nuclear factor 4-alpha (Homo sapiens, UniProt P41235); assay type: functional, cell-based;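 also: biochemical luminescence-based dose-response counterscreen measuring inhibition of HNF4 dimerization, run alongside a screen for blockers of ABHD5–perilipin-5 interaction; split luciferase complementation of HNF4 fusion proteins in cell lysate measuring dimerization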
[10] = reduction of Shn3 3'UTR-driven luciferase in osteoblasts – cell-based, Clone20 osteoblasts, firefly luciferase, cherry-picked, dose response (AID 624132); assay type: functional;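 also: firefly luciferase luminescence from reporter carrying the Shn3 3'UTR in osteoblasts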
[11] = cAMP pathway inhibition in counterscreen cell line – TR-FRET cAMP detection, counter-screen for MC4R biased antagonist project, dose response (AID 602305); assay type: functional, cell-based;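 also: U2OS cells stimulated with forskolin near its EC80 as the cAMP inducer; potency is for inhibition of forskolin-stimulated cAMP signaling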
[12] = target: T3, Melanocortin receptor 4 (Homo sapiens, UniProt P32245); assay type: functional, cell-based;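 also: Cell-based assay with luminescence read-out, confirmatory dose-response testing for agonist activity of biased ligands at MC4R; human U2OS cells with tagged receptor and beta-arrestin; potency of agonists that increase receptor coupling to beta-arrestin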
[13] = target: T3, Melanocortin receptor 4; assay: inhibitors of MC4R cAMP signaling – cell-based, TR-FRET, biased antagonists, dose response (AID 602298); assay type: functional;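 also: antagonist potency against agonist-stimulated cAMP production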
[14] = loss of viability in HepG2 cells – cell-based, CellTiter-Glo, cherry-picked, cytotoxicity control for Shn3 inhibitor project, dose response (AID 624134); assay type: functional
[15] = non-specific 3'UTR reporter inhibition in Clone20-Shn3RL – cell-based, Renilla luciferase, cherry-picked, counter-screen for Shn3 inhibitor project, dose response (AID 624133); assay type: functional
[16] = activation of miR-122 Renilla sensor silencing – cell-based, Huh7 psiCHECK-miR122, Renilla luciferase, cherry-picked, dose response (AID 651956); assay type: functional;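 also: huh7 hepatoma cells stably carrying a psiCHECK-2 miR-122 sensor plasmid; renilla luciferase signal reporting endogenous miR-122 activity after 48 h compound exposure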
[17] = target: DNA repair and recombination protein RAD54-like (Homo sapiens, UniProt Q92698); assay: RAD54 Holliday junction migration blockers – biochemical, fluorescence, cherry-picked samples, dose series, confirmation (AID 651657); assay type: functional
[18] = target: T4, DNA repair protein RAD52 homolog (Homo sapiens, UniProt P43351); assay type: functional, biochemical
T4 sequence (P43351 whole entry): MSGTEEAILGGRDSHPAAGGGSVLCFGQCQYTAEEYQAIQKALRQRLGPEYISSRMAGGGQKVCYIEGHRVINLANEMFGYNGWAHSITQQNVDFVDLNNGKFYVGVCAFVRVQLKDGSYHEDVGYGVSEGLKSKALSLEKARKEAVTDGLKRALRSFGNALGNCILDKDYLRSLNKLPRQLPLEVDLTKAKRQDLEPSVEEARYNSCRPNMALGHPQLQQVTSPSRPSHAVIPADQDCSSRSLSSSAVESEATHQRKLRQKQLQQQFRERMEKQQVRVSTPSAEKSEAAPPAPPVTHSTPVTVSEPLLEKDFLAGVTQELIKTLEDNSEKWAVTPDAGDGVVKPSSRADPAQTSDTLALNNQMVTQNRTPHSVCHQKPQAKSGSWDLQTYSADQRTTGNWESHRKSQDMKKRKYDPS

[19] = cells; assay type: functional, cell-based
[20] = DRD fibroblast viability loss – cell-based, non-viral oncogenic, luminescence, dose response (AID 1934); assay type: functional; details: Homo sapiens
[21] = system: BJ; assay: cells; assay type: functional, cell-based; details: Homo sapiens
[22] = cells; assay type: functional, cell-based; remark: listed apart in the source
[23] = Luminescence Cell-Based Dose Confirmation HTS to Identify Activators of 5'UTR Stem-Loop Driven Alpha-Synuclein mRNA Translation in H4 Neuroglioblastoma Cells. [Related pubchem assays: 1829 (Project Summary), 1814 (Primary HTS)]; assay type: functional
[24] = Trypanosoma cruzi growth suppression in host cells – NIH3T3 host cells, beta-gal luminescence, confirmation (AID 2044); assay type: functional, cell-based;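 also: intracellular parasites grown in NIH/3T3 mouse fibroblasts as host cells; luminescent beta-galactosidase reporter signal from transgenic T. cruzi replicating inside host cells; inhibitors lower the luminescence signal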
[25] = Luminescence Cell-Based Dose Response HTS to Identify Activators of Luciferase Translation or Activity in H4 […] Cells. [Related pubchem assays: 1829 (Project Summary), 1814 (Primary HTS)]; assay type: functional
[26] = NIH3T3 cell viability loss – ATP luminescence, mouse fibroblasts, counter-screen, dose response (AID 2010); assay type: functional, cell-based;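 also: cells exposed to compound for about 90 hours before reading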
[27] = cytotoxicity toward MDA-MB-231 breast cancer cells – cell-based, CellTiter-Glo luminescence, cherry-pick, cytotoxicity control for RAD54 inhibitor project, dose response (AID 651692); assay type: functional
[28] = system: H4; assay: Luminescence Cell-Based Dose Response HTS to Identify Activators of 5'UTR Stem-Loop Driven Prion Protein mRNA Translation in H4 Neuroglioblastoma Cells. [Related pubchem assays: 1829 (Project Summary), 1814 (Primary HTS)]; assay type: functional; details: Homo sapiens
[29] = system: BJ; assay: BJ-TERT fibroblast viability loss – cell-based, RAS-independent, luminescence, dose response (AID 1933); assay type: functional; details: Homo sapiens
[30] = system: BJ; assay: BJ-TERT-LT-ST fibroblast viability loss – cell-based, RAS-independent, luminescence, dose response (AID 1935); assay type: functional; details: Homo sapiens;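 also: BJ fibroblasts immortalized with TERT plus LT and ST oncogenes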

T3 sequence (P32245 whole entry): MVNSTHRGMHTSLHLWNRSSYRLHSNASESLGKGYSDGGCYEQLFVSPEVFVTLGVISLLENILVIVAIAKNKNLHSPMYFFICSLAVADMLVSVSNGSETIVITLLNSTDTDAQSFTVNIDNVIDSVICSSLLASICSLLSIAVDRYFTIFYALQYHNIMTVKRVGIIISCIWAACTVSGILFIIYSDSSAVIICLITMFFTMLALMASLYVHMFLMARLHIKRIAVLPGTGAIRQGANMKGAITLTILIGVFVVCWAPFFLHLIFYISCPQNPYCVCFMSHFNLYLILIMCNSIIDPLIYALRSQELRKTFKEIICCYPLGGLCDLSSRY
Chain of Tyrosyl-DNA phosphodiesterase 2 (O95551 whole entry, the tested form may be a part): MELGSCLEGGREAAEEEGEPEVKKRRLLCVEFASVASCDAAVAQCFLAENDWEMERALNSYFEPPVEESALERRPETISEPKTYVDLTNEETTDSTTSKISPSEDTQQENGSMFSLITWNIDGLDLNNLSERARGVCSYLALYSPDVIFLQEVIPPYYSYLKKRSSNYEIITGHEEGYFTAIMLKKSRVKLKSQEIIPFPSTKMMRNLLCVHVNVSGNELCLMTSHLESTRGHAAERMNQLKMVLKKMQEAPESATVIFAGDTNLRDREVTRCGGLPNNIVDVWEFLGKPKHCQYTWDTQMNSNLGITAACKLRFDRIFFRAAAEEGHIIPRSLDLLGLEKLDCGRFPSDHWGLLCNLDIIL
Chain of Mitochondrial peptide methionine sulfoxide reductase (P54149 whole entry, the tested form may be a part): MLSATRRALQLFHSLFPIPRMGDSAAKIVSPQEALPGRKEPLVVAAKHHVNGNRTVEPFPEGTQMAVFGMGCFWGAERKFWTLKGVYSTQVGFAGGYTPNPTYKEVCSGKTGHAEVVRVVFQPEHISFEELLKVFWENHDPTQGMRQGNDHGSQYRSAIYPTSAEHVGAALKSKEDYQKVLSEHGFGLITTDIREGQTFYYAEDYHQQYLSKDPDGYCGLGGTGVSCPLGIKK
Chain of Beta Lactamase (Q932Y6 whole entry): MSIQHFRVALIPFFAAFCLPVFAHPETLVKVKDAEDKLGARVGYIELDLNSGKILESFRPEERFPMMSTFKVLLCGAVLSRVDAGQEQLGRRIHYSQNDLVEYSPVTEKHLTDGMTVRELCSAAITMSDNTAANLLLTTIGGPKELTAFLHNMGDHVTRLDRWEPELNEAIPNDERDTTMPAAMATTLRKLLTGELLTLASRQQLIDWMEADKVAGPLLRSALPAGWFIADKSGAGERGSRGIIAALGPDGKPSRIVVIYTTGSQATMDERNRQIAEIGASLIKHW
Chain of DNA repair and recombination protein RAD54-like (Q92698 whole entry): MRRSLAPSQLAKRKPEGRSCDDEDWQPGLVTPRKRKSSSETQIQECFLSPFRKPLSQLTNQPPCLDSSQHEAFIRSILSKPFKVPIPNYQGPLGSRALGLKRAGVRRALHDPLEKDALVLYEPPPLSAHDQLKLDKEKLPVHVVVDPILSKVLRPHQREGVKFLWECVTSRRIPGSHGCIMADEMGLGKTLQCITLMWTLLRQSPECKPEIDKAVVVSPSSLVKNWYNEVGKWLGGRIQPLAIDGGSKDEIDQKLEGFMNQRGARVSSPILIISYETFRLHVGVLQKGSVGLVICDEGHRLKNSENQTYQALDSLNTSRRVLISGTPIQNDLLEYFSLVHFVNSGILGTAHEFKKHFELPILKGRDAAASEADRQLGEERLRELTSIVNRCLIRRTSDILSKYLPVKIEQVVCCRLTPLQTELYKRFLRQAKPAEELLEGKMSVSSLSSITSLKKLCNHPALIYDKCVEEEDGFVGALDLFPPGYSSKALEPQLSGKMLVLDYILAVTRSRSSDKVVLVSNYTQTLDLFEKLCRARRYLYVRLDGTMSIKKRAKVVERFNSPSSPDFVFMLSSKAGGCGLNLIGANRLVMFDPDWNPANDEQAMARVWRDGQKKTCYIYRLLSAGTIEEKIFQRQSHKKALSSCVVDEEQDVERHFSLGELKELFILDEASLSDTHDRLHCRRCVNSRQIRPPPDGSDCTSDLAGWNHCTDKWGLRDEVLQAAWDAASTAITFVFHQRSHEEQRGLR
Chain of Hepatocyte nuclear factor 4-alpha (P41235 whole entry, the tested form may be a part): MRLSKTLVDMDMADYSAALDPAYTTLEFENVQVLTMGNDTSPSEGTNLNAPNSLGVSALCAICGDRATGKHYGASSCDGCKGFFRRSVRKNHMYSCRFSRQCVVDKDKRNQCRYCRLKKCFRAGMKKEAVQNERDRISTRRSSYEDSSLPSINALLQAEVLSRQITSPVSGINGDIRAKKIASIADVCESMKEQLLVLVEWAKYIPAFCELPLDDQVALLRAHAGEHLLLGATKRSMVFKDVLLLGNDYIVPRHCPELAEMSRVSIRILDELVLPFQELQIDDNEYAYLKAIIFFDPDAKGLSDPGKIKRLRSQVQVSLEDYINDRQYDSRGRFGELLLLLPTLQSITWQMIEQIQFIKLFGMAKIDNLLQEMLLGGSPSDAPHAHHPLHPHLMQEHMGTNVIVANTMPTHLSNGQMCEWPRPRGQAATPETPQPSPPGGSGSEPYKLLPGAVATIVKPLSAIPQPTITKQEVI

Q: With COc1ccccc1N1C(C)=CC(=C(C#N)c2nc3ccccc3s2)C=C1C as the molecule, how does the EC50 [1] read?
A: The EC50 was 16.1 µM (active).

Q: What about the AC50 [2] of the same molecule?
A: Its AC50 is 5.19 µM (active).

Q: What about the IC50 [3] of the same molecule?
A: Its IC50 is 9.58 µM (active).

Q: And the IC50 [4]?
A: Its IC50 is 4.86 µM (active).

Q: For CC1OC2CC(=O)OC2C2=C1C(=O)c1c(O)cccc1C2=O (stereo not given), which IC50 [5] is on record?
A: Its IC50 is 38.2 µM (inactive).

Q: What about the EC50 [6] of the same molecule?
A: The EC50 was 21 µM (inactive).

Q: What about the IC50 [7] of the same molecule?
A: The IC50 was 2.14 µM (active).

Q: What about the IC50 [8] of the same molecule?
A: Its IC50 is 12 µM (inactive).

Q: What does the source list for CC(O)CC(=O)OC[C@]12CC[C@H]3[C@@](C)(CC[C@H]4C(C)(C)CCC[C@]34C)[C@@H]1CC(C1=CC(=O)OC1O)O2 (stereo not given in full)?
A: IC50 [9]: 3.53 µM (active); AC50 [10]: 3.75 µM (active); IC50 [11]: > 64.6 µM (inactive); EC50 [12]: > 89.2 µM (inactive); IC50 [13]: 22 µM (inactive); AC50 [14]: 22.1 µM (active); AC50 [15]: 5.5 µM (active)

Q: For C/C=C/c1ccc([C@H]2[C@H](CO)N[C@H]2CN(CC(C)C)C(=O)c2ccccn2)cc1, which AC50 [16] is on record?
A: Its AC50 is 5.62 µM (active).

Q: For c1ccc2c(NCCc3c[nH]c4ccccc34)c3ccccc3nc2c1, which AC50 [17] is on record?
A: Its AC50 is 3.17 µM (active).

Q: What about the AC50 [18] of the same molecule?
A: Its AC50 is 1.41 µM (active).

Q: And the EC50 [19]?
A: Its EC50 is > 350 µM (not active).

Q: And the EC50 [20]?
A: Its EC50 is 7.86 µM (active).

Q: What about the EC50 [21] of the same molecule?
A: The EC50 was 8.56 µM (inconclusive).

Q: What about the EC50 [22] of the same molecule?
A: Its EC50 is 29.3 µM (active).

Q: And the EC50 [23]?
A: Its EC50 is > 120 µM (not active).

Q: What about the EC50 [24] of the same molecule?
A: The EC50 was 1.43 µM (active).

Q: And the EC50 [25]?
A: Its EC50 is 4.86 µM (active).

Q: And the EC50 [26]?
A: Its EC50 is 11.9 µM (active).

Q: What about the AC50 [27] of the same molecule?
A: Its AC50 is 33.1 µM (active).

Q: What about the EC50 [28] of the same molecule?
A: The EC50 was > 120 µM (not active).

Q: What about the EC50 [29] of the same molecule?
A: The EC50 was 4.9 µM (active).

Q: And the EC50 [30]?
A: Its EC50 is 6.42 µM (inconclusive).
